Read-outs that look alike come from different tables or passages of the source.

Assay [1] relates to A375 cell xenograft tumors. Kind of assay: A375 cell xenograft tumor inhibition. As to conditions: 100 mg/kg oral twice a day, seven days. Format: in vivo, rodents. The procedure:
(§1) Compounds A1, A2 and A3 also were tested for tumor inhibition in xenograft rodents. Rodents having A375 cell xenograft tumors were administered 100 mg/kg, 75 mg/kg and 100 mg/kg doses of Compound A1, A2 and A3, respectively, by oral delivery twice a day. […] Also, rodents having MiaPaCa xenograft tumors were administered 100 mg/kg doses of Compound A1 and A3 by oral delivery twice per day.

The test system of assay [2] is MiaPaCa xenograft tumors. Kind of assay: MiaPaCa xenograft tumor inhibition. Type of assay: in vivo, rodents. As to conditions: 100 mg/kg oral twice per day, twenty-two days. The procedure:
as §1

Assay [3] has as its system a variety of cell types that are representative of different cancers. Nature of the assay: Alamar Blue cell viability assay, variety of cell types representative of different cancers (Tables 12-14). Type of assay: cell-based. As to conditions: read-out: IC50. Here is the method:
A representative cell-proliferation assay protocol using Alamar Blue dye (stored at 4° C., use 20 ul per well) is described hereafter.
96-Well Plate Setup and Compound Treatment
a. Split and trypsinize cells.
b. Count cells using hemocytometer.
c. Plate 4,000-5,000 cells per well in 100 μl of medium and seed into a 96-well plate according to the following plate layout. Add cell culture medium only to wells B10 to B12. Wells B1 to B9 have cells but no compound added.
d. Add 100 μl of 2× drug dilution to each well in a concentration shown in the plate layout above. At the same time, add 100 μl of media into the control wells (wells B10 to B12). Total volume is 200 μl/well.
e. Incubate four (4) days at 37° C., 5% CO2 in a humidified incubator.
f. Add 20 μl Alamar Blue reagent to each well.
g. Incubate for four (4) hours at 37° C., 5% CO2 in a humidified incubator.
h. Record fluorescence at an excitation wavelength of 544 nm and emission wavelength of 590 nm using a microplate reader.
In the assays, cells are cultured with a test compound for approximately four days, the dye then is added to the cells and fluorescence of […] dye is detected after approximately four hours. Different types of cells can be utilized in the assays (e.g., HCT-116 human colorectal carcinoma cells, PC-3 human prostatic cancer cells and MiaPaca human pancreatic carcinoma cells). Anti-proliferative effects of representative compounds are provided hereafter.
Inhibitory activity on cell proliferation of Compounds A1, A2 and A3 was determined using an Alamar Blue cell viability assay (e.g., Example 39 herein) using a variety of cell types that are representative of different cancers Inhibition values (IC50) are presented in micromolar concentrations in the following table (Table 12).
Inhibitory activity on cell proliferation of representative compounds of the invention was determined using an Alamar Blue cell viability assay (e.g., Example 39 herein) using a variety of cell types that are representative of different cancers Inhibition values (IC50) are presented in micromolar concentrations in Table 13 and Table 14.
In general terms: Resazurin is reduced to fluorescent resorufin, in cell work by metabolically active cells.

The mark [4] stands for this setting: Homo sapiens, A-375, A375, Skin, Epithelial.
Setting [5] is: Homo sapiens, BXPC-3, BXPC3, Pancreas, Epithelial.
Where [6] appears, read: Homo sapiens, HCT-116, HCT-116, Colorectal, Epithelial.
Setting [7] is: Homo sapiens, HL60/MX2, HL60/MX2, Hematopoetic, Lymphoma.
Where [8] appears, read: Homo sapiens, HL-60, HL60, Hematopoetic, Lymphoma.
Where [9] appears, read: Homo sapiens, HT-29, HT-29, Colorectal, Epithelial.
[10] abbreviates: Homo sapiens, Jurkat, Hematopoetic, Lymphoma.
Where [11] appears, read: Homo sapiens, K562, K562, Hematopoetic, Lymphoblast.
[12] abbreviates: Homo sapiens, LNCaP, Prostate, Fibroblastoid.
Where [13] appears, read: Homo sapiens, MCF7, MCF-7, Breast, Mammary carcinoma.
Setting [14] is: Homo sapiens, MDA-MB-231, MDA-MB-231, Breast, Epithelial.
Where [15] appears, read: Homo sapiens, MIA PaCa-2, Miapaca-2, Pancreas, Epithelial.
[16] abbreviates: Homo sapiens, NCI-H460, H460, Lung, Epithelial.
Where [17] appears, read: Homo sapiens, NCI-H1299, H1299, Lung, NSCL.
Setting [18] is: Homo sapiens, PANC-1, PANC-1, Pancreas, Epithelial.
[19] abbreviates: Homo sapiens, SAOS-2, Saos-2, Bone, Epithelial.
Setting [20] is: Homo sapiens, SK-MES-1, SK-MES-1, Lung, Sqaumous carcinoma.
The mark [21] stands for this setting: Homo sapiens, SK-OV-3, SK-OV-3, Ovary, Epithelial.
Where [22] appears, read: Homo sapiens, U2OS, Bone, Epithelial.
[23] abbreviates: Miapaca-R5, Pancreas, Epithelial.

What is called IC50 is the concentration needed to halve the response being measured. On to `Cc1cnc(CNC(=O)c2c(=O)c3ccc(N4CCN(C)CC4)nc3n3c2sc2ccccc23)cn1` [Compound A1], for which the “A375 tumor growth inhibition relative to untreated control group” value in assay [1] is on record as “significantly inhibited A375 tumor growth”. The “MiaPaCa tumor growth inhibition relative to untreated control group” value in assay [2] is reported as “significantly inhibited MiaPaCa tumor growth”. Besides, the IC50 in assay [3] (setting [4]) came out at 90 nM; in assay [3] (setting [5]) it was 56 nM; in assay [3] (setting [6]), 97 nM; in assay [3] (setting [7]) it was 244 nM; in assay [3] (setting [8]), 264 nM; in assay [3] (setting [9]), 73 nM. Further, the IC50 came to 69 nM in assay [3] (setting [10]); 140 nM in assay [3] (setting [11]); 77 nM in assay [3] (setting [12]); 348 nM in assay [3] (setting [13]); 105 nM in assay [3] (setting [14]); 103 nM in assay [3] (setting [15]). Further, the IC50 in assay [3] (setting [16]) came to 142 nM; in assay [3] (setting [17]) it was 112 nM; in assay [3] (setting [18]), 148 nM; in assay [3] (setting [19]), 264 nM; in assay [3] (setting [20]), 105 nM; in assay [3] (setting [21]), 215 nM. Besides, the IC50 in assay [3] (setting [22]) was 752 nM; in assay [3] (setting [23]), 149 nM; in assay [3] (PC-3, Prostate, Epithelial) it was 600 nM.

Consider `O=C(NCCNC1CC1)c1c(=O)c2ccc(N3CCOCC3)nc2n2c1sc1ccccc12` [Compound A3], for which the “A375 tumor growth inhibition relative to untreated control group” value in assay [1] was “significantly inhibited A375 tumor growth”. Moreover, the “MiaPaCa tumor growth inhibition relative to untreated control group” value in assay [2] is “significantly inhibited MiaPaCa tumor growth”. In addition, the IC50 is 70 nM in assay [3] (setting [4]); 71 nM in assay [3] (setting [5]); 93 nM in assay [3] (setting [6]); 219 nM in assay [3] (setting [7]); 160 nM in assay [3] (setting [8]); 102 nM in assay [3] (setting [9]). In addition, the IC50 in assay [3] (setting [10]) is 60 nM; in assay [3] (setting [11]), 120 nM; in assay [3] (setting [12]), 45 nM; in assay [3] (setting [13]) it was 267 nM; in assay [3] (setting [14]), 139 nM; in assay [3] (setting [15]), 122 nM. Also, the IC50 in assay [3] (setting [16]) was 123 nM; in assay [3] (setting [17]), 102 nM; in assay [3] (setting [18]), 103 nM; in assay [3] (setting [19]), 249 nM; in assay [3] (setting [20]) it was 134 nM; in assay [3] (setting [21]) it was 279 nM. The IC50 in assay [3] (setting [22]) stood at 476 nM; in assay [3] (setting [23]), 133 nM; in assay [3] (PC-3, Prostate, Epithelial) it was 563 nM.

These data come from patent publication US8853234B2, “Quinolone analogs and methods related thereto” (Senhwa Biosciences, Inc., priority 2007, dated 2014).
